Experiments:
[1] = system: serotonin syndrome (5-HT1A); assay: Production of the serotonin syndrome (agonist activity); assay type: in vivo, male Sprague-Dawley CD rats; details: for ED50: Rattus norvegicus, 0.25 h, first 15 minutes after compound administration, read-out: ED50 for producing the serotonin syndrome
Procedure: (§1) Certain of the compounds of this invention were also compared to buspirone in their ability to either produce or antagonize the serotonin syndrome according to the procedure of Smith and Peroutka, Pharmacol. Biochem. Behav. 24: 1513-1519, 1986, in which 250-350 g male Sprague-Dawley CD rats (Charles River) are given either test compound or vehicle and placed individually into plexiglass observation cages. Agonist activity of the compound is determined by scoring for the presence of the serotonin syndrome (forepaw treading, head weaving, tremor, hindlimb abduction, flattened body posture, and Straub tail) during the first 15 minutes after compound administration. Antagonist activity is then determined by a challenge with either of the 5-HT1A agonists 5-methoxy-N,N-dimethyltryptamine (5-MeODMT) or 8-hydroxydipropylaminotetralin.

dopamine D-2 receptor = molecular target: T1, dopamine D-2 receptor (Rattus norvegicus, UniProt P61169); assay: D-2 Binding: displacement of 3H-spiroperidol in homogenized limbic brain tissue
T1 construct: from tissue; host or cells: homogenized limbic brain tissue
T1 sequence (P61169 whole entry): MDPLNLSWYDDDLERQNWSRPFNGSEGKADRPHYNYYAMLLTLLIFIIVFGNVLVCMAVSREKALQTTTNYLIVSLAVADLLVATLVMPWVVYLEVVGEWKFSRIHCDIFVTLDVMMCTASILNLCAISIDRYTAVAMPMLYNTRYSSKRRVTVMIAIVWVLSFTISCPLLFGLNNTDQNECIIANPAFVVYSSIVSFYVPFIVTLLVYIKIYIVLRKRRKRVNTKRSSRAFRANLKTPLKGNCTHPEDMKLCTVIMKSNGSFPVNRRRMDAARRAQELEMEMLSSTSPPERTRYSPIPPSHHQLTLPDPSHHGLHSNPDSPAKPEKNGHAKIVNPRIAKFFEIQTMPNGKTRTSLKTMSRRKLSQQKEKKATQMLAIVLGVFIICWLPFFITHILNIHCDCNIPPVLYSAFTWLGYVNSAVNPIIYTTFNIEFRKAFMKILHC
Procedure: High affinity for the dopamine D2 receptor was established by the standard experimental test procedure of Fields, et al., Brain Res., 136, 578 (1977) and Yamamura et al., eds., Neurotransmitter Receptor Binding, Raven Press, New York (1978) wherein homogenized limbic brain tissue is incubated with ^3 H-spiroperidol and various concentrations of test compound, filtered and washed and shaken with Hydrofluor scintillation cocktail (National Diagnostics) and counted in a Packard 460 CD scintillation counter.

[2] = molecular target: T2, serotonin 5-HT1A receptor (Rattus norvegicus, UniProt P19327); assay: 5-HT1A Binding: displacement of [3H] 8-OHDPAT
T2 construct: following the procedure of Hall et al., J. Neurochem; 44, 1685 (1985); from tissue; host or cells: brain tissue (from the cited method)
T2 sequence (P19327 1-422): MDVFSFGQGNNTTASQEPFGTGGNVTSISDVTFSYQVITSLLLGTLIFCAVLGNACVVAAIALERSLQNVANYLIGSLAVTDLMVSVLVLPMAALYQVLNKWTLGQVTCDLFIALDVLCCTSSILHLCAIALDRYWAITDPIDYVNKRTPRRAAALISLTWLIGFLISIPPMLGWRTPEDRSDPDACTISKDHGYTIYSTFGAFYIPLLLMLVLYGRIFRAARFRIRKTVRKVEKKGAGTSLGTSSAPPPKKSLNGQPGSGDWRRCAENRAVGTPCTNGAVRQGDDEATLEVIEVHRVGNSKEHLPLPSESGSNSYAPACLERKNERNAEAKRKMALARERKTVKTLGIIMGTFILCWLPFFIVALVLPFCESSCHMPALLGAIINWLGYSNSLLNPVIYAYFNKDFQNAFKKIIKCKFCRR
From the text: High affinity for the serotonin 5-HT1A receptor was established by testing the claimed compound's ability to displace [^3 H] 8-OHDPAT (dipropylaminotetralin) from the 5-HT1A serotonin receptor following the procedure of Hall et al., J. Neurochem. 44, 1685 (1985). […] The anxiolytic activity of buspirone is believed to be, at least partially, due to its 5-HT1A receptor affinity (Vander Maclen et al., Eur. J. Pharmacol. 1986, 129 (1-2) 133-130).

5-HT1A receptor = details: cited from earlier work
[3] = molecular target: T2, serotonin 5-HT1A receptor; details: buspirone, standard for anxiolytic activity; cited from earlier work
[4] = system: serotonin syndrome (5-HT1A); assay: Antagonism of 5-HT1A agonist-induced (5-MeODMT or 8-OH-DPAT) serotonin syndrome; assay type: in vivo, male Sprague-Dawley CD rats; details: for ED50: Rattus norvegicus, rats
Procedure: as §1

inhibition at 1 µM (dopamine D-2 receptor) [%]	inhibition at 0.1 µM [2] [%]	Structure (SMILES)	further results
34	88	CC1(C)C2CCC1(C(=O)NCCNCC1COc3ccccc3O1)C(=O)C2 (single isomer, unassigned; (-)) [Example 6]	characterization as agonist/antagonist in the serotonin syndrome test ([1]; single dose of 20 mg/kg): partial agonist
27	98	O=C(NCCNCC1COc2ccccc2O1)NC12CC3CC(CC(C3)C1)C2 (stereo not drawn) [Example 3, N-[2-[(2,3-Dihydro-1,4-benzodioxin-2-yl)methylamino]ethyl]-N'-tricyclo[3,3,1,1(3,7)]dec-1-ylurea]	production of the serotonin syndrome on its own ([1]; compound alone, rats): did not produce the syndrome on its own; IC50 ([2]; 5-HT1A binding): 5 nM; ability to antagonize the serotonin syndrome ([4]; 1.0, 3.3, 10.0, and 33.0 mg/kg): mimicked buspirone's ability to antagonize the serotonin syndrome
49	90	CC1(C)[C@H]2CC[C@]1(CS(=O)(=O)NCCNCC1COc3ccccc3O1)C(=O)C2 (single isomer, unassigned) [Example 8]	IC50 ([2]; 5-HT1A binding): 9 nM
34	97	CC1(C)C2CCC1(C(=O)NCCNCC1COc3ccccc3O1)C(=O)C2 (single isomer, unassigned; (+)) [Example 5, (+)-N-[2-[[(2,3-Dihydro-1,4-benzodioxin-2-yl)methyl]amino]ethyl]-7,7-dimethyl-2-oxobicyclo[2,2,1]heptane-1-carboxamide]	ED50 ([1]; rats): 3.8 mg/kg; EC50 ([2]; 5-HT1A binding, given as EC50): 3 nM; ED50 ([4]; challenge with 8-OH-DPAT, read-out: ED50 for antagonizing 8-OH-DPAT induced syndrome): 4.7 mg/kg
81	98	O=C(NCCNCC1COc2ccccc2O1)C12CC3CC(CC1C3)C2 (stereo not drawn) [Example 7, N-[2-[[(2,3-Dihydro-1,4-benzodioxin-2-yl)methyl]amino]ethyl]hexahydro-2,5-methanopentalene-3a(1H)-carboxamide]	
55	95	O=C(NCCNCC1COc2ccccc2O1)NC12CC3CC(CC1C3)C2 (stereo not drawn) [Example 4, N-[2-[(2,3-Dihydro-1,4-benzodioxin-2-yl)methyl]aminoethyl-N'-hexahydro-2,5-methanopentalen-3a(1H)-yl]urea]	

More lines, now with the values behind:

Structure (SMILES)	inhibition at 1 µM (dopamine D-2 receptor) [%]	inhibition at 0.1 µM [2] [%]	further results
O=C1CC2(CCCC2)CC(=O)N1CCCCNCC1COc2ccccc2O1 (stereo not drawn) [MDL 72832, 8-[4-(1,4-benzodioxan-2-ylmethylamino)butyl]-8-azaspiro[4.5]decane-7,9-dione]			5-HT1A ligand character (in words) (5-HT1A receptor): selective and stereospecific
O=C1CC2(CCCC2)CC(=O)N1CCCCN1CCN(c2ncccn2)CC1 [buspirone, reference compound]			ED50 ([1]; rats): 7.3 mg/kg; characterization as agonist/antagonist in the serotonin syndrome test ([1]; buspirone: from ED50s for production and antagonism): partial agonist; affinity for the 5-HT1A serotonin receptor subtype (in words) [3]: potent affinity; ED50 ([4]; challenge with 5-MeODMT, read-out: ED50 for antagonizing 5-MeODMT-induced syndrome): 4.6 mg/kg
O=C(OCCNCC1COc2ccccc2O1)C12CC3CC(CC(C3)C1)C2 (stereo not drawn) [Example 2, Tricyclo[3,3,1,1(3,7)]decane-1-carboxylic acid 2-[[(2,3-dihydro-1,4-benzodioxin-2-yl)methyl]amino]ethyl ester]	91	100	
O=C(NCCNCC1COc2ccccc2O1)C12CC3CC(CC(C3)C1)C2 (stereo not drawn) [Example 1, N-[2-[[(2,3-Dihydro-1,4-benzodioxin-2-yl)methyl]amino]ethyl]tricyclo[3,3,1,1(3,7)]-decane-1-carboxamide]	83	100	
O=C1CC2(CCCC2)CC(=O)N1CCCCNCC1COc2ccccc2O1 (single isomer, unassigned; (-)) [(-)-MDL 72832]			binding relative to the dextrorotary isomer at the 5-HT1A receptor site (5-HT1A receptor; (-)-isomer vs dextrorotary isomer): 32 times

— patent US5126367A, “Psychotropic benzodioxan derivatives” (American Home Products Corporation, priority 1991, dated 1992)
